# From PMC12333940, “A prometabolite strategy inhibits cardiometabolic disease in an ApoE^–/– murine model of atherosclerosis” (JCI Insight, 2025)
# Where “and” joins values, the source holds several entries; their conditions need not be identical. Equal entries are not always repeated.
# Columns and labels:
# [1] = test system: ApoE^–/– mice on an HFD; test: Flow cytometry of blood, lymph nodes and spleen; assay type: in vivo, mouse; parameters: Treg / Th17 / F480+CD11b+ Macrophages / iNOS+ Macs / Arg1+ Macs: unit not given here
# Experimental: SerBut water was pH adjusted using 10 M NaOH to a final pH of 7.4. […] After 6 weeks, mice were euthanized. The lMLNs, ILNs, spleen, heart, and aorta were harvested and processed for flow cytometry analysis ([67]). […] The remaining liver was fixed with 4% paraformaldehyde and embedded in paraffin for histological analysis.
# Flow cytometry was performed using a BD LSRFortessa or a Cytek Aurora full-spectrum cytometer.
# [2] = Biodistribution of free butyrate after oral gavage, ApoE–/– mice on HFD; conditions: 3 hours after single gavage of 272 mM butyrate
# Experimental: Samples were prepared and derivatized as described previously ([28]). Stock solutions were prepared in water/acetonitrile (ACN) (1:1 v/v): 3-nitrophenylhydrazine (NPH), and 1-ethyl-3-(3-dimethylaminopropyl)carbodiimide (EDC) (in 1% pyridine). The internal standard, 4-methylvaleric acid, was added. Samples were mixed with NPH and EDC stocks at a 1:1:1 volume ratio. The mixture was heated in a heating block at 60°C for 30 minutes. Samples were filtered through 0.22 μm filters and stored at 4°C before analysis.
# An Agilent 6460 Triple Quad MS-MS was used to detect the derivatized butyrate. Both derivatized butyrate-NPH and 4-methylvaleric-NPH were detected in negative mode. Column: Thermo Fisher Scientific C18 4.6 × 50 mm, 1.8 μm particle size, at room temperature. Mobile phase A: water with 0.1% v/v formic acid. Mobile phase B: ACN with 0.1% v/v formic acid. Injection volume: 5.0 μL. Flow rate: 0.5 mL/min. Gradient of solvent: 15% mobile phase B at 0.0 minutes; 100% mobile phase B at 3.5 minutes; 100% mobile phase B at 6.0 minutes; 15% mobile phase B at 6.5 minutes. The MS conditions were optimized using pure butyrate-NPH or 4-methylvaleric-NPH at 1 mM. The fragment voltage was set to 135 V, and the collision energy was 18 V. Multiple reaction monitoring (MRM) of 222 → 137 was assigned to butyrate, and MRM of 250 → 137 was assigned to 4-methylvaleric acid as the internal standard. The ratio between MRM of butyrate and 4-methylvaleric acid was used to quantify butyrate concentration.
# Three hours after administration, mice were anesthetized under isoflurane, and blood was collected via submandibular vein into EDTA-coated tubes. The tubes were centrifuged, and plasma was collected and frozen at –80°C. […] Organs, including liver, MLNs, ILNs, spleen, lung, heart, aorta, small intestine, and large intestine were collected and then transferred to –80°C until further processing. To extract butyrate from plasma or organs, a 1:1 (v/v) ACN/water solution was used. Plasma was mixed 1:1 with the ACN/water solution and centrifuged to remove denatured proteins. Organs were weighed, transferred to Lysing Matrix D tubes (MP Biomedicals), and combined with the 1:1 v/v ACN/water solution. Samples were then lysed using a FastPrep-24 5G homogenizer (MP Biomedicals) and centrifuged. The supernatants were collected for butyrate measurement by LC-MS/MS. The final butyrate content in each organ was normalized by organ weight.
# [3] = test system: ApoE^–/– mice on an HFD; test: qPCR of liver lipid metabolism genes; assay type: in vivo, mouse; parameters: srebf1 / srebf2 / fasn / acly / scd1 / acaca / cpt1a: scale not given here; conditions: qPCR; individual mice
# Experimental: We then asked whether SerBut’s effects on disease pathology and inflammation may be partially mediated by changes in lipid metabolism by measuring lipogenic and lipid oxidation gene expression by qPCR after treatment for 6 weeks (Supplemental Figure 10, F–L).
# (§1) For 6 weeks, mice were freely administered water, water containing 150 mM SerBut, or water containing an equimolar amount of NaBut. SerBut water was pH adjusted using 10 M NaOH to a final pH of 7.4. […] In concert, mice were fed an HFD with 42% from fat and 0.2% total cholesterol (Envigo, TD-88137) ad libitum. After 6 weeks, mice were euthanized. The lMLNs, ILNs, spleen, heart, and aorta were harvested and processed for flow cytometry analysis ([67]). The liver was harvested and part was homogenized in tissue protein extraction reagent buffer (Invitrogen, 78510) supplemented with protease inhibitor mini tablets (Thermo Fisher Scientific, PIA32955) for Western blotting and qPCR. The remaining liver was fixed with 4% paraformaldehyde and embedded in paraffin for histological analysis.
# [4] = test system: ApoE^–/– mice on an HFD; test: CD68 immunohistochemistry and Stary plaque severity grading; assay type: in vivo, mouse; parameters: STARY Score Average: scale not given here
# Experimental: as §1
# Frozen aortic root sections were fixed in Zamboni fixative for 10 minutes. After TBS wash, slides were loaded on Leica Bond RX automated stainer. Anti–mouse CD68 antibody (BioLegend, catalog 137001, clone FA-11; 1:4000) was applied to tissue sections for 60 minutes of incubation at room temperature. Following TBS wash, tissue sections were incubated with rabbit anti-rat IgG (Thermo Fisher Scientific, 31219) 30 minutes. The antigen-antibody binding was detected using Polymer-HRP (Leica Biosystems, Bond Polymer Refine Detection kit, DS9800). The slides were coverglassed by autocoverslipper (Tissue-Tek Glas g2). Stary plaque severity grading was done as previously described ([42]). Briefly, each individual mouse was scored if there were at least 2 sections showing all 3 leaflets of the aortic valve that could reasonably be scored. Each leaflet was scored individually per aortic valve and subsequently averaged per section. All sections were averaged per mouse for a final score. Sections were graded blinded. Table 1 explains the scoring scale. Quantitative analysis of plaque features was performed using a classifier in QuPath (v.05.0).
# [5] = Inguinal Lymph Node Flow, individual mice
# [6] = Mesenteric Lymph Node Flow, individual mice
structure (smiles),measurement,setting,value
"CCCC(=O)[O-].[Na+] [NaBut, sodium butyrate, reference compound]",Arg1+ Macs,[1]; [5],1.5 and 2.34 and 2.81 and 2.38
same,F480+CD11b+ Macrophages,[1]; [5],0.62 and 0.34 and 0.21 and 0.27
same,Th17,[1]; [5],4.92 and 5.5 and 5.4 and 13 and 8.24 and 3.69 and 4.14 and 8.43 and 4.57 and 3.89
same,Th17/Treg,[1]; [5],0.4278 and 0.4365 and 0.4463 and 1.161 and 0.7423 and 0.2976 and 0.345 and 0.4153 and 0.3288 and 0.2701
same,Treg,[1]; [5],11.5 and 12.6 and 12.1 and 11.2 and 11.1 and 12.4 and 12 and 20.3 and 13.9 and 14.4
same,iNOS+ Macs,[1]; [5],2.2 and 5.7 and 2.33 and 5.26
same,Arg1+ Macs,[1]; [6],1.44 and 1.98 and 1.72 and 1.71
same,F480+CD11b+ Macrophages,[1]; [6],11.6 and 5.7 and 6.38 and 10.4
same,Th17,[1]; [6],11.7 and 14.4 and 12.2 and 12.1 and 11.3 and 18.4 and 15.3
same,Th17/Treg,[1]; [6],1.054 and 1.385 and 0.8652 and 1.008 and 0.8968 and 1.108 and 0.8895
same,Treg,[1]; [6],11.1 and 10.4 and 14.1 and 12 and 12.6 and 16.6 and 17.2
same,iNOS+ Macs,[1]; [6],2.42 and 0.43 and 0.69 and 0.94
same,Th17,"[1]; Spleen Flow, individual mice",1.11 and 0.85 and 1.17 and 1.19 and 1.09 and 1.43 and 1.41 and 1.08 and 1.22 and 0.97
same,Th17/Treg,"[1]; Spleen Flow, individual mice",0.1535 and 0.1111 and 0.1425 and 0.1357 and 0.131 and 0.1783 and 0.1653 and 0.135 and 0.1432 and 0.1325
same,Treg,"[1]; Spleen Flow, individual mice",7.23 and 7.65 and 8.21 and 8.77 and 8.32 and 8.02 and 8.53 and 8 and 8.52 and 7.32
same,Blood Neutrophils: CD11b+Ly6G+ %CD45,"[1]; blood, individual mice",7.65 %CD45 and 9.07 %CD45 and 17.4 %CD45 and 8.36 %CD45 and 14.3 %CD45 and 19.3 %CD45 and 20.8 %CD45 and 17.3 %CD45 and 19.5 %CD45 and 14.8 %CD45 and 22.8 %CD45 and 4.26 %CD45 and 16.8 %CD45
same,Th17/Treg cell ratio,[1]; spleen,lower Th17/Treg cell ratio
same,"free butyrate, Plasma",[2],4.575 µM
same,acaca,[3],0.754 and 1.434 and 0.565 and 0.348
same,acly,[3],1.514 and 3.195 and 3.181 and 0.636
same,cpt1a,[3],0.594 and 0.912 and 0.54 and 0.529
same,fasn,[3],1.21 and 3.882 and 0.92 and 0.454
same,scd1,[3],1.215 and 2.79 and 1.889 and 0.696
same,srebf1,[3],0.816 and 1.204 and 0.406 and 0.79
same,srebf2,[3],0.731 and 1.208 and 0.837 and 0.717
same,STARY Score Average,"[4]; average per mouse, experiments 1 and 2, grades per the 1st table",4 and 4.278 and 4.083 and 3.889 and 4.367 and 4.595 and 4.611 and 4.667
same,CD68+ IHC Quantification CD68 % Lesion,[4]; individual mice,65.946 % Lesion and 80.0675 % Lesion and 77.46 % Lesion and 69.3112 % Lesion and 58.965 % Lesion and 57.8207 % Lesion and 65.2988 % Lesion
same,CD68+ IHC Quantification CD68+ (um2),[4]; individual mice,195963 um2 and 152245 um2 and 221322 um2 and 227819 um2 and 178448 um2 and 177016 um2 and 268099 um2
same,CD68+ IHC Quantification Intima % Lesion,[4]; individual mice,12.0227 % Lesion and 7.77 % Lesion and 10.3458 % Lesion and 13.4964 % Lesion and 17.8935 % Lesion and 30.3544 % Lesion and 12.0651 % Lesion
same,CD68+ IHC Quantification Intima (um2),[4]; individual mice,36578.9 um2 and 15233.4 um2 and 30544.5 um2 and 45695.4 um2 and 53110.1 um2 and 102496 um2 and 50318.2 um2
same,CD68+ IHC Quantification Necrotic Core % Lesion,[4]; individual mice,21.7224 % Lesion and 11.9211 % Lesion and 11.8215 % Lesion and 16.7081 % Lesion and 22.5501 % Lesion and 9.461 % Lesion and 22.3112 % Lesion
same,CD68+ IHC Quantification Necrotic Core (um2),[4]; individual mice,64440.8 um2 and 22667.5 um2 and 33872.5 um2 and 54918.5 um2 and 69955.9 um2 and 28166.5 um2 and 89527.4 um2
